Assay results reported in ChEMBL document CHEMBL4806969, “Modulators of mas-related g-protein receptor x4 and related products and methods” (2020).

What was measured:
[1] = biological target: Mas-related G-protein coupled receptor member X4 (Homo sapiens, UniProt Q96LA9); experiment: Antagonist activity at human MRGPRX4 expressed in HEK cells incubated in dark for 1 hr at 37 degree C and then incubated for 30 mins at room temperature in presence of […] bilirubin by HTRF assay; type: functional, cell-based
[2] = AUC in C57BL/6 mouse at 50 mg/kg, po measured upto 24 hrs by LC-MS/MS analysis; type: ADME, organism-based; parameters: route oral, dose 50 mg/kg, time <=24; conditions: in vivo
[3] = Half life in C57BL/6 mouse at 50 mg/kg, po measured upto 24 hrs by LC-MS/MS analysis; type: ADME, organism-based; conditions: in vivo

Mas-related G-protein coupled receptor member X4, sequence (Q96LA9 whole entry): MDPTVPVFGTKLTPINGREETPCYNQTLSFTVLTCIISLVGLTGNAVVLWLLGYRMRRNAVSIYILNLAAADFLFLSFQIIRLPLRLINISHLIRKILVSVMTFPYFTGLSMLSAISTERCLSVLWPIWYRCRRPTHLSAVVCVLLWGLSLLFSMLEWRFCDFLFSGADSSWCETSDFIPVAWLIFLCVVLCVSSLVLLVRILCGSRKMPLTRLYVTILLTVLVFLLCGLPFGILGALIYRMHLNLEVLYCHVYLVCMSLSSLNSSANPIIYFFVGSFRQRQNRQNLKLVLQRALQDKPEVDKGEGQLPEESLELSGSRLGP

Row | SMILES | IC50 [1] | AUC at 24 h [2] | half-life [3]
1 | O=C(O)c1cccc(COc2cccc(C(F)F)c2)c1 | > 2500 nM |  | 
2 | COC(=O)c1cccc(COc2ccc(Cl)cc2Cl)c1 | > 2500 nM |  | 
3 | O=C(O)c1cccc(COc2ccc3c(c2)CCC3=O)c1 | > 2500 nM |  | 
4 | N#CCc1ccccc1OCc1cccc(C(=O)O)c1 | > 2500 nM |  | 
5 | N#Cc1ccc(OCc2cccc(C(=O)O)c2)cc1 | > 2500 nM |  | 
6 | CC(=O)c1ccc(OCc2cccc(C(=O)O)c2)cc1 | > 2500 nM |  | 
7 | Cc1ccc(COc2ccc(Cl)cc2Cl)cc1C(=O)O | > 2500 nM |  | 
8 | O=C(O)c1cccc(Oc2ccc([N+](=O)[O-])cc2Cl)c1 | > 2500 nM |  | 
9 | Cc1noc(-c2cccc(COc3ccc(C(F)(F)F)cc3Cl)c2)n1 | < 2500 nM |  | 
10 | O=C(O)c1cccc(COc2ccccc2C(F)F)c1 | > 2500 nM |  | 
11 | CCCc1cc(COc2ccc(C(F)(F)F)cc2Cl)nc(C(=O)O)c1 | < 100 nM |  | 
12 | N#Cc1cc(COc2ccc(C(F)(F)F)cc2Cl)cc(C(=O)O)c1 | < 100 nM |  | 
13 | O=C(O)c1c(F)ccc(COc2ccc(C(F)(F)F)cc2Cl)c1F | < 100 nM |  | 
14 | O=C(O)c1nc(COc2ccc(C(F)(F)F)cc2Cl)ccc1F | < 100 nM |  | 
15 | O=C(O)c1cccc(COc2ccc(Cl)c(F)c2Cl)c1 | < 100 nM |  | 
16 | COc1ccc(C(=O)O)cc1COc1ccc(Cl)cc1Cl | > 2500 nM |  | 
17 | O=C(O)c1cccc(COc2ccc3c(c2)C(=O)CCC3)c1 | > 2500 nM |  | 
18 | O=C(O)c1cccc(COc2ccc(Cl)cc2Cl)c1F | < 100 nM | 1500 µM·h | 5.9 h
19 | Cc1cc(COc2ccc(Cl)cc2Cl)cc(C(=O)O)c1 | < 100 nM |  | 
20 | O=C(O)c1cc(COc2ccc(C(F)(F)F)cc2Cl)cc(C2CC2)c1 | < 100 nM |  | 
21 | COC(=O)c1cccc(COc2ccc3scnc3c2)c1 | > 2500 nM |  | 
22 | Fc1ccc(OCc2cccc(-c3nnn[nH]3)c2)c(Cl)c1 | < 100 nM |  | 
23 | O=C(O)c1cccc(COc2ccc(C(F)(F)F)c(Cl)c2)n1 | < 100 nM |  | 

Row | SMILES | IC50 [1] | AUC at 24 h [2] | half-life [3]
24 | Cc1cc(C(F)(F)F)ccc1OCc1cccc(-c2nnn[nH]2)c1 | < 100 nM |  | 
25 | COCCCNC(=O)c1cccc(COc2ccc(C(F)(F)F)cc2Cl)c1 | < 100 nM |  | 
26 | O=C(O)c1cccc(COc2ccc(C(F)(F)F)cc2Cl)c1F | < 100 nM | 2150 µM·h | 11.2 h
27 | O=C(O)c1cccc(COc2ccc3ccccc3c2)c1F | < 100 nM |  | 
28 | O=C(O)c1cccc(COc2ccc3sccc3c2Cl)c1F | < 100 nM |  | 
29 | O=C(O)c1cccc(COc2ccc(OC(F)(F)F)cc2Cl)c1F | < 100 nM |  | 
30 | O=C(O)c1cc(COc2ccc(C(F)(F)F)cc2Cl)ccc1F | < 100 nM | 1070 µM·h | 4.7 h
31 | O=C(O)Cc1cccc(COc2ccc(Cl)cc2Cl)c1 | > 2500 nM |  | 
32 | O=C(O)c1cccc(CNc2ccc(C(F)(F)F)cc2Cl)n1 | < 100 nM |  | 
33 | O=C(O)c1cccc(COc2ccccc2Cl)c1F | > 2500 nM |  | 
34 | O=C(O)c1cccc(COc2ccc(Cl)c(Cl)c2Cl)c1F | < 100 nM |  | 
35 | O=C(O)c1cccc(COc2ccc(Oc3ccccc3)cc2)c1 | > 2500 nM |  | 
36 | CC(C)(C)c1ccccc1OCc1cccc(C(=O)O)c1 | > 2500 nM |  | 
37 | O=C(O)c1cccc(COc2ccc(F)cc2Cl)c1 | > 2500 nM |  | 
38 | O=C(O)c1cccc(COc2ccccc2Cl)c1 | > 2500 nM |  | 
39 | NC(=O)c1cccc(COc2cccc(Cl)c2Cl)c1 | > 2500 nM |  | 
40 | O=C(O)c1cccc(COc2ccc(OC(F)(F)F)c(Cl)c2)n1 | < 100 nM |  | 
41 | FC(F)(F)c1ccc(OCc2cccc(-c3nnn[nH]3)c2)cc1Cl | < 100 nM |  | 
42 | Cc1cc(COc2ccc(C(F)(F)F)cc2Cl)nc(C(=O)O)c1 | < 100 nM |  | 
43 | O=C(O)c1cccc(COc2ccc(OC(F)(F)F)cc2Cl)c1 | < 100 nM |  | 
44 | Cc1cc(OCc2cccc(C(=O)O)c2)ccc1OC(F)(F)F | > 2500 nM |  | 
45 | COC(=O)c1cccc(COc2ccc3ccccc3c2)n1 | < 100 nM |  | 
46 | O=C(O)c1cccc(COc2cccc3c2OC(F)(F)O3)c1 | > 2500 nM |  | 

Row | SMILES | IC50 [1] | AUC at 24 h [2] | half-life [3]
47 | O=C(O)c1cccc(COc2ccc(Cl)cc2C(F)(F)F)c1F | < 100 nM |  | 
48 | O=C(O)c1cccc(COc2c(Cl)cccc2Cl)c1 | > 2500 nM |  | 
49 | O=C(O)c1cccc(COc2ccc(-c3ccccc3)cc2)c1 | > 2500 nM |  | 
50 | O=C(O)c1cc(C2CC2)cc(COc2ccc(C(F)(F)F)cc2Cl)n1 | < 100 nM |  | 
51 | N#Cc1cc(COc2ccc(OC(F)(F)F)cc2Cl)cc(C(=O)O)c1 | < 100 nM |  | 
52 | CC(C)c1ccccc1OCc1cccc(C(=O)O)c1 | > 2500 nM |  | 
53 | O=C(O)c1cccc(NC(=O)c2cccc(COc3ccc(C(F)(F)F)cc3Cl)c2)c1 | > 2500 nM |  | 
54 | O=C(O)c1cccc(COc2ccc(C(F)(F)F)cc2C(F)(F)F)c1 | < 100 nM |  | 
55 | Fc1cc(OCc2cccc(-c3nnn[nH]3)c2)ccc1C(F)(F)F | < 100 nM |  | 
56 | N#Cc1cc(COc2ccc(Cl)c(Cl)c2Cl)cc(C(=O)O)c1 | < 100 nM |  | 
57 | O=C(c1ccc(COc2ccc(C(F)(F)F)cc2Cl)cc1)N1CC2(COC2)C1 | < 2500 nM |  | 
58 | O=C(O)c1cccc(COc2ccc(Cl)c(F)c2)c1 | < 100 nM |  | 
59 | Cc1cc(CNc2ccc(C(F)(F)F)cc2Cl)nc(C(=O)O)c1 | < 100 nM |  | 
60 | O=C(O)c1cccc(COc2ccc(C(F)(F)F)cc2F)c1 | < 100 nM |  | 
61 | Cc1cc(COc2ccc3ccccc3c2)cc(C(=O)O)c1 | < 100 nM |  | 
62 | O=C(O)c1cccc(COc2ccc(Cl)c(Cl)c2F)c1 | < 100 nM |  | 
63 | O=C(O)c1cc(Cl)cc(COc2ccc(C(F)(F)F)cc2Cl)c1 | < 100 nM |  | 
64 | Cc1cc(OCc2cccc(C(=O)O)c2)ccc1C(F)(F)F | > 2500 nM |  | 
65 | N#Cc1cc(COc2ccc(C(F)(F)F)c(Cl)c2)cc(C(=O)O)c1 | < 100 nM |  | 
66 | O=C(O)CNC(=O)c1cccc(COc2ccc(C(F)(F)F)cc2Cl)c1 | < 100 nM |  | 
67 | O=C(O)c1cccc(COc2ccc(OC(F)(F)F)cc2Cl)n1 | < 100 nM |  | 

Other lines, results leading:

Row | IC50 [1] | AUC at 24 h [2] | half-life [3] | SMILES
68 | < 100 nM |  |  | CC(Oc1ccc(C(F)(F)F)cc1Cl)c1cccc(C(=O)O)c1 (stereo unspecified)
69 | < 100 nM |  |  | c1cc(COc2ccc3ccccc3c2)cc(-c2nnn[nH]2)c1
70 | < 100 nM | 880 µM·h | 3.2 h | O=C(O)c1cccc(COc2ccc(C(F)(F)F)cc2Cl)n1
71 | < 100 nM |  |  | FC(F)(F)Oc1ccc(OCc2cccc(-c3nnn[nH]3)c2)cc1Cl
72 | < 100 nM |  |  | Cc1cc(C(F)(F)F)ccc1OCc1cccc(C(=O)O)n1
73 | < 100 nM |  |  | O=C(O)c1cccc(COc2ccc3ccccc3c2Cl)c1F
74 | < 100 nM |  |  | O=C(O)c1cc(Cl)cc(COc2ccc(Cl)cc2Cl)c1
75 | < 100 nM |  |  | Cc1cc(COc2ccc(C(F)(F)F)c(Cl)c2)cc(C(=O)O)c1
76 | < 100 nM |  |  | Fc1c(COc2ccc(C(F)(F)F)cc2Cl)cccc1-c1nnn[nH]1
77 | < 100 nM |  |  | O=C(O)c1nc(COc2ccc(C(F)(F)F)c(Cl)c2)ccc1F
78 | < 100 nM |  |  | FC(F)(F)Oc1ccc(OCc2cccc(-c3nnn[nH]3)c2)c(Cl)c1
79 | < 100 nM |  |  | Cc1cc(COc2ccc3ccccc3c2)nc(C(=O)O)c1
80 | < 100 nM |  |  | O=C(O)c1cccc(COc2ccc(C(F)(F)F)cc2Br)c1
81 | < 100 nM |  |  | Fc1cc(COc2ccc(C(F)(F)F)cc2Cl)cc(-c2nnn[nH]2)c1
82 | < 100 nM |  |  | CCc1cc(COc2ccc(Cl)c(Cl)c2Cl)nc(C(=O)O)c1
83 | < 100 nM |  |  | O=C(O)c1cccc(COc2ccc(C(F)(F)F)cc2)c1F
84 | < 100 nM |  |  | CCc1cc(COc2ccc3ccccc3c2)nc(C(=O)O)c1
85 | < 100 nM | 1040 µM·h | 4.8 h | O=C(O)c1cc(F)cc(COc2ccc(C(F)(F)F)cc2Cl)c1
86 | < 100 nM | 974 µM·h | 4.6 h | Cc1cc(COc2ccc(C(F)(F)F)cc2Cl)cc(C(=O)O)c1
87 | < 100 nM |  |  | Cc1cc(C(F)(F)F)ccc1OCc1cccc(C(=O)O)c1
88 | < 100 nM |  |  | O=C(O)c1cc(F)cc(COc2ccc(Cl)cc2Cl)c1
89 | < 100 nM | 572 µM·h | 3.6 h | Cc1cc(COc2ccc(C(F)(F)F)cc2C)cc(C(=O)O)c1
90 | < 100 nM |  |  | O=C(O)c1cc(Br)cc(COc2ccc(C(F)(F)F)cc2Cl)n1
91 | < 100 nM |  |  | O=C(O)c1cc(Br)cc(COc2ccc(C(F)(F)F)cc2Cl)c1

Row | IC50 [1] | AUC at 24 h [2] | half-life [3] | SMILES
92 | < 100 nM |  |  | O=C(O)c1cc(F)cc(COc2ccc3ccccc3c2)c1
93 | < 100 nM |  |  | O=C(O)c1cccc(COc2ccc3ccccc3c2)n1
94 | < 100 nM |  |  | O=C(O)c1cccc(COc2ccc(C(F)(F)F)c(F)c2)c1
95 | < 100 nM |  |  | Fc1ccc(COc2ccc(C(F)(F)F)cc2Cl)cc1-c1nnn[nH]1
96 | < 100 nM |  |  | CCOC(=O)c1cccc(COc2ccc(C(F)(F)F)cc2Cl)n1
97 | < 100 nM |  |  | O=C(O)c1cccc(COc2ccc(C(F)F)cc2Cl)c1
98 | < 100 nM |  |  | Cc1cc(COc2ccc(Cl)c(Cl)c2Cl)nc(C(=O)O)c1
99 | < 100 nM |  |  | FC(F)(F)c1ccc(OCc2cccc(-c3nnn[nH]3)n2)c(Cl)c1
100 | < 100 nM |  |  | COc1cc(COc2ccc(C(F)(F)F)cc2Cl)cc(C(=O)O)c1
101 | < 100 nM |  |  | Cc1cc(C(F)(F)F)ccc1OCc1cc(C#N)cc(C(=O)O)c1
102 | < 100 nM |  |  | Cc1cc(C(F)(F)F)ccc1OCc1cc(F)cc(C(=O)O)c1
103 | < 100 nM |  |  | O=C(O)c1cc(F)cc(COc2ccc(Cl)c(Cl)c2Cl)c1
104 | < 100 nM |  |  | Cc1cc(COc2ccc(OC(F)(F)F)cc2Cl)cc(C(=O)O)c1
105 | < 100 nM |  |  | COC(=O)c1cccc(COc2ccc(C(F)(F)F)cc2Cl)n1
106 | < 100 nM |  |  | COc1cc(COc2ccc(Cl)cc2Cl)cc(C(=O)O)c1
107 | < 100 nM |  |  | O=C(O)c1cccc(CNc2ccc(C(F)(F)F)cc2Cl)c1
108 | < 100 nM |  |  | O=C(O)c1cccc(COc2ccc(Cl)cc2Cl)c1Cl
109 | < 100 nM |  |  | Cc1ccc(OCc2cccc(C(=O)O)c2)c(Cl)c1Cl
110 | < 100 nM |  |  | N#Cc1cc(COc2ccc(C(F)(F)F)cc2Cl)nc(C(=O)O)c1
111 | < 100 nM |  |  | O=C(O)c1cccc(COc2ccc(OC(F)(F)F)c(Cl)c2)c1
112 | < 100 nM |  |  | Cc1cc(Cl)ccc1OCc1cccc(C(=O)O)c1F
113 | < 100 nM |  |  | Cc1cc(Cl)ccc1OCc1cccc(-c2nnn[nH]2)c1
114 | < 100 nM | 1210 µM·h | 3 h | O=C(O)c1cccc(COc2ccc(Cl)cc2Cl)n1
115 | < 100 nM |  |  | O=C(O)c1cccc(COc2ccc(C(F)(F)F)c(Cl)c2)c1F
